Test results published in patent US5834452A, “1- or 6-hydroxylated steroids” (Roussel Uclaf, priority 1996, dated 1998).

Target: T1, Human estrogen receptor (HOR) (Homo sapiens, UniProt P03372)
T1 construct: made in house; host or cells: SF9 insect cells (baculovirus), lysate supernatant
T1 sequence (P03372 1-595): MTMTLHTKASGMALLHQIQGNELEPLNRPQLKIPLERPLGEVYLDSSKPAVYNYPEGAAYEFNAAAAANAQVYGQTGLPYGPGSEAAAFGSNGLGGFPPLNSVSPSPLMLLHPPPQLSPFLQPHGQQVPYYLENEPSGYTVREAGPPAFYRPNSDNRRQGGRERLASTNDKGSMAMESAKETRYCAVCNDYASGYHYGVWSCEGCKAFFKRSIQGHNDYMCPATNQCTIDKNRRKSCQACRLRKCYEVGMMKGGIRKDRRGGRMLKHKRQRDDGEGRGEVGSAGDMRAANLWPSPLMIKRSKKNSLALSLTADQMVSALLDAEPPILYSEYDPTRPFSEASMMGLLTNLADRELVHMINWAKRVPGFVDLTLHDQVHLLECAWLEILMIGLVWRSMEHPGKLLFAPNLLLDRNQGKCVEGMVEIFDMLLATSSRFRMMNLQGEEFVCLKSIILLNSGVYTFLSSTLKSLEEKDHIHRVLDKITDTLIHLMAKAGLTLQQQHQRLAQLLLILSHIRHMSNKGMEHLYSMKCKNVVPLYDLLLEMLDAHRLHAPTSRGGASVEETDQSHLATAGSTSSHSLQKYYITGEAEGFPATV
Test: Relative bond affinity (RBA), recombinant human estrogen receptor, charcoal dextran technique
Assay type: binding
Conditions: 24 h at 0° C., Estradiol = 100
Text: The human recombinant receptor (HGR, HPR, HAR, HMR, HER) was used.
Human estrogen receptor (HOR):
A supernatant of SF9 cells containing the recombinant human estrogen receptor was obtained by the process described above for the progestogen receptor using the cDNA fragment described in the expression vector HEGO by Tora et al (The EMBO Journal, (1989), Vol. 8 No. 7, p. 1981-1986) containing the region coding for the human estrogen receptor of "wild type" with a glycine in position 400. The cells obtained were lysed in the lysis buffer (1).
The supernatant was incubated at 0° C. for 24 hours with a constant concentration (T) of tritiated estradiol in the presence of increasing concentrations of either unlabelled estradiol (0-1000×10^-9 M), or the unlabelled product to be tested (1 to 25000×10^-9 M). The concentration of bound tritiated estradiol (B) was then measured in each incubate using the charcoal dextran adsorption technique.
Calculation of the relative bond affinity (RBA).
The following two curves were drawn: the percentage of bound tritiated hormone B/BO as a function of the logarithm of the concentration of unlabelled reference hormone or as a function of the logarithm of the concentration of unlabelled test product. The straight line of the following equation was determined: […]
The intersections of the straight line I50 and the curves allowed the evaluation of the concentrations of unlabelled reference hormone (CH) and of the unlabelled test product (CX) which inhibited by 50% the specific binding of the tritiated hormone on the receptor.
The relative bond affinity (RBA) of the test product was determined by the equation:
The RBA's of reference products Estradiol, Progesterone Dexamethasone, Testosterone and Aldosterone were arbitrarily taken as being equal to 100.

| RBA, Human estrogen receptor | RBA, Human estrogen receptor (listed as product B) | RBA, Human estrogen receptor (listed as Trimegesterone) | Structure (SMILES) |
| --- | --- | --- | --- |
| 0 | zero | – | C[C@H](O)C(=O)[C@@]1(C)CC[C@H]2[C@@H]3C[C@@H](O)C4=CC(=O)CCC4=C3CC[C@@]21C [Product B, [6β, 17β-(S)]-6-hydroxy-17-(2-hydroxy-1-oxopropyl)-17-methyl-Δ^4,9-estradiene-3-one] |
| 0 | – | zero | C[C@H](O)C(=O)[C@@]1(C)CC[C@H]2[C@@H]3CCC4=CC(=O)CCC4=C3CC[C@@]21C [Trimegestone, [17β-(S)]-17-(2-hydroxy-1-oxopropyl)-17-methyl-Δ^4,9-estradiene-3-one, reference compound] |
